Laboratory results taken from US20080293583A1, “Methods for diagnosing mood disorders” (Wyeth, priority 2003, published 2008).

Key:
Type in all cases: in vivo
IGF-1 A precursor = assay: 2-DE proteome analysis of rat hippocampus after antidepressant treatment: IGF-1 A precursor; details: rat hippocampus cytosolic extract, 10 mg/kg i.p. daily 14 days, vs control; gel spot 87
Procedure: (§1) Animal dosing. Adult male Sprague Dawley rats weighing 230-320 g were housed with ad libitum access to food and water. After 1 week of habituation, rats were administered either an antidepressant or vehicle alone. The following drugs were administered intraperitoneally (i.p.): fluoxetine (10 mg/kg daily), venlafaxine (10 mg/kg daily) or vehicle alone (1 ml/kg normal saline daily) for 14 days (n=3 rats per group).
(§2) Sample preparation and cytosolic protein extraction. The animals were euthanized and hippocampi were rapidly dissected from the whole brain. Samples from each treatment group were pooled and stored at −85° C. Cytosolic extracts were prepared using the universal extraction kit from Sigma (prot-two) as follows: soluble cytoplasmic extraction reagent (S2688) was added to the hippocampal tissue (10 ml/250 mg wet weight). […]
(§3) Two-dimensional gel electrophoresis. […] Molecular masses were determined by running standard protein markers (Genomic Solutions Inc.), covering the range 10-200 kDa as well as internal verification via landmark proteins within the gel. […]
(§4) Protein fixation, silver staining and 2-D gel comparisons. […] Protein spots were outlined (first automatically and then manually) and quantified using the HT analyzer v2.2 software (Genomic Solutions Inc.). The software calculated the relative spot volume of the proteins compared with the total amount of protein in the gel. […]

[1] = test system: PCTAIRE-3 (Serine/Threonine-Protein Kinase); assay: 2-DE proteome analysis of rat hippocampus: PCTAIRE-3; details: rat hippocampus cytosolic extract, 10 mg/kg i.p. daily 14 days, vs control; gel spot 6
Procedure: as §1, §2, §3, §4

[2] = test system: Fatty Acid-Binding Protein, Heart (H-FABP); assay: 2-DE proteome analysis of rat hippocampus: H-FABP; details: rat hippocampus cytosolic extract, 10 mg/kg i.p. daily 14 days, vs control; gel spot 89
Procedure: as §1, §2, §3, §4

[3] = test system: Serine Protease Inhibitor 2.1 (SPI-2.1); assay: 2-DE proteome analysis of rat hippocampus: SPI-2.1; details: rat hippocampus cytosolic extract, 10 mg/kg i.p. daily 14 days, vs control; gel spot 62
Procedure: as §1, §2, §3, §4

[4] = test system: Pyruvate Dehydrogenase E1 component beta subunit, mitochondrial (precursor); assay: 2-DE proteome analysis of rat hippocampus: Pyruvate Dehydrogenase E1 beta; details: rat hippocampus cytosolic extract, 10 mg/kg i.p. daily 14 days, vs control; gel spot 26
Procedure: as §1, §2, §3, §4

[5] = test system: 60S Ribosomal Protein L18A; assay: 2-DE proteome analysis of rat hippocampus: Ribosomal Protein L18A; details: rat hippocampus cytosolic extract, 10 mg/kg i.p. daily 14 days, vs control; gel spot 58
Procedure: as §1, §2, §3, §4

[6] = test system: Hydroxysteroid sulfotransferase A (Androsterone-sulfating sulfotransferase); assay: 2-DE proteome analysis of rat hippocampus: Hydroxysteroid sulfotransferase A; details: rat hippocampus cytosolic extract, 10 mg/kg i.p. daily 14 days, vs control; gel spot 79
Procedure: as §1, §2, §3, §4

[7] = test system: Transcription factor BTEB 1; assay: 2-DE proteome analysis of rat hippocampus: BTEB 1; details: rat hippocampus cytosolic extract, 10 mg/kg i.p. daily 14 days, vs control; gel spot 19
Procedure: as §1, §2, §3, §4

[8] = test system: 40 S ribosomal protein S 19; assay: 2-DE proteome analysis of rat hippocampus: ribosomal protein S 19; details: rat hippocampus cytosolic extract, 10 mg/kg i.p. daily 14 days, vs control; gel spot 72
Procedure: as §1, §2, §3, §4

[9] = test system: Probasin precursor (lipocalin family member); assay: 2-DE proteome analysis of rat hippocampus: Probasin precursor; details: rat hippocampus cytosolic extract, 10 mg/kg i.p. daily 14 days, vs control; gel spot 70
Procedure: as §1, §2, §3, §4

[10] = test system: Cytochrome C oxidase polypeptide VB, mitochondrial precursor (COX5B); assay: 2-DE proteome analysis of rat hippocampus: COX5B; details: rat hippocampus cytosolic extract, 10 mg/kg i.p. daily 14 days, vs control; gel spot 86
Procedure: as §1, §2, §3, §4

Alpha-enolase = assay: 2-DE proteome analysis of rat hippocampus: Alpha-enolase; details: rat hippocampus cytosolic extract, 10 mg/kg i.p. daily 14 days, vs control; for Fold change, Alpha-enolase (spot 8): gel spot 8; for Fold change, Alpha-enolase (spot 9): gel spot 9; for Fold change, Alpha-enolase (spot 10): gel spot 10
Procedure: as §1
Sample preparation and cytosolic protein extraction. The animals were euthanized and hippocampi were rapidly dissected from the whole brain. Samples from each treatment group were pooled and stored at −85° C. Cytosolic extracts were prepared using the universal extraction kit from Sigma (prot-two) as follows: soluble cytoplasmic extraction reagent (S2688) was added to the hippocampal tissue (10 ml/250 mg wet weight). Samples were sonicated (4 times at 30 seconds) and centrifuged for 45 minutes (14,000 g) at 4° C. The supernatant was decanted and stored on ice. Ten milliliters of the soluble cytoplasmic extraction reagent was added to the remaining pellet and the sonication and centrifugation steps were repeated. The supernatant was decanted, combined with the previous supernatant and SpeedVac (Savant Instruments, Halbrook, N.Y.) dried. Each sample was dissolved in 2 ml of 2-D lysis buffer (6 M urea, 2 M thiourea, 4% CHAPS, 40 mM Tris, 65 mM dithiothreitol (DTT), 1 mM sodium vanadate, 1 mM sodium fluoride, protease inhibitor tablet (#1836145, Roche)), concentrated and desalted (Centricon tube; 6500 rpm) at 10° C. for 12 hours.
Two-dimensional gel electrophoresis. First dimensional isoelectric focusing (IEF) was performed on 18 cm IPG strips (pH 4-7) using an IPGphor unit (Amersham Pharmacia). Each strip was rehydrated for 16 hours with sample lysate (˜500 ug) in a final volume of 400 uL of IEF solution (10 uL of bromophenol blue (0.25% w/v); 2 uL of Ampholyte (pH 4-7, Amersham #17-6000-86); 2-D lysis buffer). […] The strips were then subjected to a two-step equilibration (50 mM Tris; 2% SDS; 30% glycerol) in (A) 0.5% DTT (Bio-Rad) and (B) 4.5% iodoacetamide (Sigma) buffers before proceeding to SDS-PAGE. Separation in the second dimension was performed on 10% SDS polyacrylamide gels (180×1.5 mm) at a constant voltage of 500 V at 15° C. for 28 hours using an Investigator 2D electrophoresis unit (Genomic Solutions Inc., MA) which accommodated 10 gels. Molecular masses were determined by running standard protein markers (Genomic Solutions Inc.), covering the range 10-200 kDa as well as internal verification via landmark proteins within the gel. The pl values were used as given by the supplier of the immobilized pH-gradient strips.
Protein fixation, silver staining and 2-D gel comparisons. Silver staining of the gels was performed using a silver stain kit (gs#80-0183; Genomic Solutions). All steps were performed at room temperature, gently agitating the trays on a rotary shaker at low speed. Stained gels were scanned using an 8-bit ccd camera and the Investigator G3 ProPic system (Genomic Solutions Inc.). Protein spots were outlined (first automatically and then manually) and quantified using the HT analyzer v2.2 software (Genomic Solutions Inc.). The software calculated the relative spot volume of the proteins compared with the total amount of protein in the gel. The HT analyzer software was used to cross-match (‘synchronize’) and identify protein spots between control gels and drug treatment gels that were different in integrated intensity by at least a factor of 1.5 versus control. […] This population of spots were automatically picked from each gel with the ProPic system for in-gel trypsin digestion.
Enzymatic digestion of protein spots. Silver-stained protein spots were automatically excised and transferred to a 96-well polypropylene microtiter plate. Each excised spot was de-stained to remove the silver ions and enhance sensitivity with 30 mM potassium ferricyanide and 100 mM sodium thiosulfate (1:1 ratio). […]

[11] = test system: 60S Ribosomal Protein L35A; assay: 2-DE proteome analysis of rat hippocampus: Ribosomal Protein L35A; details: rat hippocampus cytosolic extract, 10 mg/kg i.p. daily 14 days, vs control; gel spot 92
Procedure: as §1, §2, §3, §4

[12] = test system: L-Lactate Dehydrogenase B Chain; assay: 2-DE proteome analysis of rat hippocampus: L-Lactate Dehydrogenase B Chain; details: rat hippocampus cytosolic extract, 10 mg/kg i.p. daily 14 days, vs control; gel spot 23
Procedure: as §1, §2, §3, §4

Row | Compound | Fold change, IGF-1 A precursor (IGF-1 A precursor) | Fold change, PCTAIRE-3 [1] | Fold change, Fatty Acid-Binding Protein, Heart (H-FABP) [2] | Fold change, Serine Protease Inhibitor 2.1 (SPI-2.1) [3] | Fold change, Pyruvate Dehydrogenase E1 component beta subunit [4] | Fold change, 60S Ribosomal Protein L18A [5] | Fold change, Hydroxysteroid sulfotransferase A [6] | Fold change, Transcription factor BTEB 1 [7] | Fold change, 40 S ribosomal protein S 19 [8] | Fold change, Probasin precursor [9] | Fold change, Cytochrome C oxidase polypeptide VB (COX5B) [10] | Fold change, Alpha-enolase (spot 8) (Alpha-enolase) | Fold change, Alpha-enolase (spot 9) (Alpha-enolase) | Fold change, Alpha-enolase (spot 10) (Alpha-enolase) | Fold change, 60S Ribosomal Protein L35A [11] | Fold change, L-Lactate Dehydrogenase B Chain [12]
1 | CNCCC(Oc1ccc(C(F)(F)F)cc1)c1ccccc1 (centres unmarked) [Fluoxetine, fluoxetine] | 2.5 Fold change | 1.5 Fold change | 1.6 Fold change | 2.9 Fold change | 3.2 Fold change | 1.8 Fold change | 2 Fold change | 1.6 Fold change | 2 Fold change | 2.7 Fold change | 3.2 Fold change | 3.4 Fold change | 5 Fold change | 3 Fold change | 2.2 Fold change | 2.5 Fold change
2 | COc1ccc(C(CN(C)C)C2(O)CCCCC2)cc1 (centres unmarked) [Venlafaxine, venlafaxine] | 2.9 Fold change | 1.5 Fold change | 2.1 Fold change | 1.9 Fold change | 2.6 Fold change | 2.9 Fold change | 2 Fold change | 2.3 Fold change | 1.8 Fold change | 2.7 Fold change | 4 Fold change | 2 Fold change | 4.8 Fold change | 4.1 Fold change | 2.5 Fold change | 2.5 Fold change
